Test results from patent publication US8609608B2, “Antimicrobial peptides” (C3 Jian, Inc., priority 2007, dated 2013).
Where no end group is shown, it is not given here.

Each substance was assayed on S. aureus (assay: not given). Conditions: not given.
In the case of “FLHKHLFKHKLF [Peptide S3L8-18, FLHKHLFKHKLF]”, the “MIC S. aureus” value is reported as >125 µg/mL. In the case of FKFLFKF [Peptide S3L8-42, FKFLFKF], the “MIC S. aureus” value is reported as >125 µg/mL. “VIRHVWVRKLF [Peptide S3L8-27, VIRHVWVRKLF]” was tested, and the “MIC S. aureus” value was >125 µg/mL. In the case of LKHKLKHKF [Peptide S3L8-35, LKHKLKHKF], the “MIC S. aureus” value is reported as >125 µg/mL. With LRLFLRF [Peptide S3L8-43, LRLFLRF] the “MIC S. aureus” value was >125 µg/mL. With “LKAKIKFKVKLKIKF [Peptide S3L8-11, LKAKIKFKVKLKIKF]” the “MIC S. aureus” value was 125 µg/mL. For “FVFRHKWVWKHRFLF [Peptide S3L8-1, FVFRHKWVWKHRFLF]”, the “MIC S. aureus” value was >125 µg/mL. With “LILKFLFKFVF [Peptide S3L8-32, LILKFLFKFVF]” the “MIC S. aureus” value was 16 µg/mL. With FRHRFRHRF [Peptide S3L8-34, FRHRFRHRF] the “MIC S. aureus” value was >125 µg/mL. “VFKRVLIHKLIF [Peptide S3L8-23, VFKRVLIHKLIF]” was tested, and the “MIC S. aureus” value was >125 µg/mL. “VLRHLFRHRIVF [Peptide S3L8-21, VLRHLFRHRIVF]” was tested, and the “MIC S. aureus” value was >125 µg/mL. “FLFKHLFLHRIFF [Peptide S3L8-16, FLFKHLFLHRIFF]” was tested, and the “MIC S. aureus” value was >125 µg/mL. For “VFRHRFIHRHVF [Peptide S3L8-19, VFRHRFIHRHVF]”, the “MIC S. aureus” value was >125 µg/mL. FKFLFKHKF [Peptide S3L8-40, FKFLFKHKF] was tested, and the “MIC S. aureus” value was >125 µg/mL. With “VLIRILVRVIF [Peptide S3L8-33, VLIRILVRVIF]” the “MIC S. aureus” value was 125 µg/mL. For “FLHKHVLRHRIVF [Peptide S3L8-14, FLHKHVLRHRIVF]”, the “MIC S. aureus” value was >125 µg/mL. For LRLFLRHRF [Peptide S3L8-41, LRLFLRHRF], the “MIC S. aureus” value was >125 µg/mL.

The substances below were run on clinical isolates of S. mutans (assay: not given). Conditions: clinical isolates of.
Type: cell-based, Streptococcus mutans
Procedure: S. mutans clinical isolates UA140 (32), UA159 (1), T8 (33), ATCC 25175, GS5 (Kuramitsu and Ingersoll (1977) Infect Immun., 17: 330-337), and all gram-positive strains listed below (see Table 9) were grown under anaerobic conditions in brain heart infusion or Todd-Hewitt (TH) broth (Difco) overnight at 37° C. prior to use (Eckert et al. (2006) Antimicrob. Agents Chemother. 50: 3651-3657). Veillonella atypica PK1910 was grown in Veillonella medium (Egland et al. (2004) Proc. Natl. Acad. Sci., USA, 101: 16917-16922). All strains were grown in an anaerobic atmosphere of 80% N2, 10% CO2, and 10% H2.
Antibacterial growth inhibition assays were performed using sterile 96-well plates in a final volume of 100 μl, TH or Veillonella medium as described previously (Qi et al. (2005) FEMS Microbial Lett. 251: 321-326). Briefly, bacterial cells were grown overnight to an optical density at 600 nm of 0.75 to 0.8 (corresponding to 1×10^8 CFU/ml) and then diluted to 1×10^5 CFU/ml in broth and aliquoted onto plates. An appropriate volume of peptide stock solution (5 to 20 mg/ml, in water or methanol, depending on solubility) was then added to the first column of the plate to give 500 μg/ml or 512 μg/ml, followed by serial 1:2 dilutions across the plate to give wells containing peptides ranging from 500 to 1.95 μg/ml or 512 to 2 μg/ml. Methanol alone was also added to control for the effects of the solvent. The plates were then incubated at 37° C. under anaerobic conditions for 16 to 20 h without shaking, and the MIC was determined as the concentration of peptide present in the last clear well after visual inspection. Up to 5% (vol/vol) methanol was found not to be antimicrobial (data not shown). MICs were determined in triplicate for all bacteria.
“FLHKHLFKHKLF [Peptide S3L8-18, FLHKHLFKHKLF]” was tested, and the “MIC S. mutans” value was >125 µg/mL. For FKFLFKF [Peptide S3L8-42, FKFLFKF], the “MIC S. mutans” value was >125 µg/mL. With “VIRHVWVRKLF [Peptide S3L8-27, VIRHVWVRKLF]” the “MIC S. mutans” value was 60 µg/mL. With LKHKLKHKF [Peptide S3L8-35, LKHKLKHKF] the “MIC S. mutans” value was >125 µg/mL. In the case of LRLFLRF [Peptide S3L8-43, LRLFLRF], the “MIC S. mutans” value is reported as >125 µg/mL. In the case of “LKAKIKFKVKLKIKF [Peptide S3L8-11, LKAKIKFKVKLKIKF]”, the “MIC S. mutans” value is reported as 8 µg/mL. “FVFRHKWVWKHRFLF [Peptide S3L8-1, FVFRHKWVWKHRFLF]” was tested, and the “MIC S. mutans” value was 16 µg/mL. With “LILKFLFKFVF [Peptide S3L8-32, LILKFLFKFVF]” the “MIC S. mutans” value was 31 µg/mL. For FRHRFRHRF [Peptide S3L8-34, FRHRFRHRF], the “MIC S. mutans” value was >125 µg/mL. With “VFKRVLIHKLIF [Peptide S3L8-23, VFKRVLIHKLIF]” the “MIC S. mutans” value was >125 µg/mL. In the case of “VLRHLFRHRIVF [Peptide S3L8-21, VLRHLFRHRIVF]”, the “MIC S. mutans” value is reported as 60 µg/mL. For “FLFKHLFLHRIFF [Peptide S3L8-16, FLFKHLFLHRIFF]”, the “MIC S. mutans” value was >125 µg/mL. “VFRHRFIHRHVF [Peptide S3L8-19, VFRHRFIHRHVF]” was tested, and the “MIC S. mutans” value was >125 µg/mL. In the case of FKFLFKHKF [Peptide S3L8-40, FKFLFKHKF], the “MIC S. mutans” value is reported as 30 µg/mL. “VLIRILVRVIF [Peptide S3L8-33, VLIRILVRVIF]” was tested, and the “MIC S. mutans” value was >125 µg/mL. With LRLFLRHRF [Peptide S3L8-41, LRLFLRHRF] the “MIC S. mutans” value was 16 µg/mL.

Each substance was assayed on E. faecalis (assay: not given). Conditions: not given.
In the case of “FLHKHLFKHKLF [Peptide S3L8-18, FLHKHLFKHKLF]”, the “MIC E. faecalis” value is reported as >125 µg/mL. In the case of FKFLFKF [Peptide S3L8-42, FKFLFKF], the “MIC E. faecalis” value is reported as >125 µg/mL. “VIRHVWVRKLF [Peptide S3L8-27, VIRHVWVRKLF]” was tested, and the “MIC E. faecalis” value was >125 µg/mL. LKHKLKHKF [Peptide S3L8-35, LKHKLKHKF] was tested, and the “MIC E. faecalis” value was >125 µg/mL. For LRLFLRF [Peptide S3L8-43, LRLFLRF], the “MIC E. faecalis” value was >125 µg/mL. In the case of “LKAKIKFKVKLKIKF [Peptide S3L8-11, LKAKIKFKVKLKIKF]”, the “MIC E. faecalis” value is reported as 39 µg/mL. For “FVFRHKWVWKHRFLF [Peptide S3L8-1, FVFRHKWVWKHRFLF]”, the “MIC E. faecalis” value was 32 µg/mL. “LILKFLFKFVF [Peptide S3L8-32, LILKFLFKFVF]” was tested, and the “MIC E. faecalis” value was 16 µg/mL. With FRHRFRHRF [Peptide S3L8-34, FRHRFRHRF] the “MIC E. faecalis” value was >125 µg/mL. “VFKRVLIHKLIF [Peptide S3L8-23, VFKRVLIHKLIF]” was tested, and the “MIC E. faecalis” value was 32 µg/mL. “VLRHLFRHRIVF [Peptide S3L8-21, VLRHLFRHRIVF]” was tested, and the “MIC E. faecalis” value was 93.5 µg/mL. For “FLFKHLFLHRIFF [Peptide S3L8-16, FLFKHLFLHRIFF]”, the “MIC E. faecalis” value was >125 µg/mL. For “VFRHRFIHRHVF [Peptide S3L8-19, VFRHRFIHRHVF]”, the “MIC E. faecalis” value was >125 µg/mL. FKFLFKHKF [Peptide S3L8-40, FKFLFKHKF] was tested, and the “MIC E. faecalis” value was 62.5 µg/mL. In the case of “VLIRILVRVIF [Peptide S3L8-33, VLIRILVRVIF]”, the “MIC E. faecalis” value is reported as 16 µg/mL. With “FLHKHVLRHRIVF [Peptide S3L8-14, FLHKHVLRHRIVF]” the “MIC E. faecalis” value was >125 µg/mL. LRLFLRHRF [Peptide S3L8-41, LRLFLRHRF] was tested, and the “MIC E. faecalis” value was 62.5 µg/mL.

What follows are substances tested on P. aeruginosa (assay: MIC against P. aeruginosa). Conditions: not given.
Type: cell-based, Pseudomonas aeruginosa
“FLHKHLFKHKLF [Peptide S3L8-18, FLHKHLFKHKLF]” was tested, and the “MIC P. aeruginosa” value was >125 µg/mL. With FKFLFKF [Peptide S3L8-42, FKFLFKF] the “MIC P. aeruginosa” value was >125 µg/mL. In the case of “VIRHVWVRKLF [Peptide S3L8-27, VIRHVWVRKLF]”, the “MIC P. aeruginosa” value is reported as >125 µg/mL. In the case of LKHKLKHKF [Peptide S3L8-35, LKHKLKHKF], the “MIC P. aeruginosa” value is reported as >125 µg/mL. For LRLFLRF [Peptide S3L8-43, LRLFLRF], the “MIC P. aeruginosa” value was >125 µg/mL. For “LKAKIKFKVKLKIKF [Peptide S3L8-11, LKAKIKFKVKLKIKF]”, the “MIC P. aeruginosa” value was 32 to 62.5 µg/mL. In the case of “FVFRHKWVWKHRFLF [Peptide S3L8-1, FVFRHKWVWKHRFLF]”, the “MIC P. aeruginosa” value is reported as >125 µg/mL. With “LILKFLFKFVF [Peptide S3L8-32, LILKFLFKFVF]” the “MIC P. aeruginosa” value was >125 µg/mL. With FRHRFRHRF [Peptide S3L8-34, FRHRFRHRF] the “MIC P. aeruginosa” value was >125 µg/mL. “VFKRVLIHKLIF [Peptide S3L8-23, VFKRVLIHKLIF]” was tested, and the “MIC P. aeruginosa” value was >125 µg/mL. “VLRHLFRHRIVF [Peptide S3L8-21, VLRHLFRHRIVF]” was tested, and the “MIC P. aeruginosa” value was >125 µg/mL. “FLFKHLFLHRIFF [Peptide S3L8-16, FLFKHLFLHRIFF]” was tested, and the “MIC P. aeruginosa” value was >125 µg/mL. In the case of “VFRHRFIHRHVF [Peptide S3L8-19, VFRHRFIHRHVF]”, the “MIC P. aeruginosa” value is reported as >125 µg/mL. With FKFLFKHKF [Peptide S3L8-40, FKFLFKHKF] the “MIC P. aeruginosa” value was >125 µg/mL. In the case of “VLIRILVRVIF [Peptide S3L8-33, VLIRILVRVIF]”, the “MIC P. aeruginosa” value is reported as >125 µg/mL. “FLHKHVLRHRIVF [Peptide S3L8-14, FLHKHVLRHRIVF]” was tested, and the “MIC P. aeruginosa” value was >125 µg/mL. With LRLFLRHRF [Peptide S3L8-41, LRLFLRHRF] the “MIC P. aeruginosa” value was >125 µg/mL.

Each substance was assayed on L. casei (assay: not given). Conditions: not given.
“FLHKHLFKHKLF [Peptide S3L8-18, FLHKHLFKHKLF]” was tested, and the “MIC L. casei” value was >62.5 µg/mL. With FKFLFKF [Peptide S3L8-42, FKFLFKF] the “MIC L. casei” value was >62.5 µg/mL. In the case of “VIRHVWVRKLF [Peptide S3L8-27, VIRHVWVRKLF]”, the “MIC L. casei” value is reported as >62.5 µg/mL. LKHKLKHKF [Peptide S3L8-35, LKHKLKHKF] was tested, and the “MIC L. casei” value was >62.5 µg/mL. In the case of LRLFLRF [Peptide S3L8-43, LRLFLRF], the “MIC L. casei” value is reported as >62.5 µg/mL. For “LKAKIKFKVKLKIKF [Peptide S3L8-11, LKAKIKFKVKLKIKF]”, the “MIC L. casei” value was 3 µg/mL. In the case of “FVFRHKWVWKHRFLF [Peptide S3L8-1, FVFRHKWVWKHRFLF]”, the “MIC L. casei” value is reported as 62.5 µg/mL. In the case of “LILKFLFKFVF [Peptide S3L8-32, LILKFLFKFVF]”, the “MIC L. casei” value is reported as 16 µg/mL. For FRHRFRHRF [Peptide S3L8-34, FRHRFRHRF], the “MIC L. casei” value was >62.5 µg/mL. For “VFKRVLIHKLIF [Peptide S3L8-23, VFKRVLIHKLIF]”, the “MIC L. casei” value was 62.5 µg/mL. “VLRHLFRHRIVF [Peptide S3L8-21, VLRHLFRHRIVF]” was tested, and the “MIC L. casei” value was >62.5 µg/mL. For “FLFKHLFLHRIFF [Peptide S3L8-16, FLFKHLFLHRIFF]”, the “MIC L. casei” value was >62.5 µg/mL. “VFRHRFIHRHVF [Peptide S3L8-19, VFRHRFIHRHVF]” was tested, and the “MIC L. casei” value was >62.5 µg/mL. For FKFLFKHKF [Peptide S3L8-40, FKFLFKHKF], the “MIC L. casei” value was 62.5 µg/mL. For “VLIRILVRVIF [Peptide S3L8-33, VLIRILVRVIF]”, the “MIC L. casei” value was 16 µg/mL. “FLHKHVLRHRIVF [Peptide S3L8-14, FLHKHVLRHRIVF]” was tested, and the “MIC L. casei” value was >62.5 µg/mL. For LRLFLRHRF [Peptide S3L8-41, LRLFLRHRF], the “MIC L. casei” value was >62.5 µg/mL.
